Reference: US9809521B2, “Cannabidinoid derivatives” (priority 2011, dated 2017)
Read-outs that look alike come from different tables or passages of the source.

Assays:
[1] = test system: MDA-MB231 cells; test: Xenograft mouse model of human breast cancer lung metastasis; type: in vivo
Experimental: In-vivo metastatic studies using a Xenograph mouse model for human breast cancer with CBD. […] Lung metastases were generated in Nude mice after tail vein injection of 1×10^6 MDA-MB231-luc-D3H2LN cells. One day after the injection, the tumor bearing mice were injected i.p. once a day with vehicle or 0.5 mg/kg and 1 mg/kg CBD for three weeks. Visible lung metastases were then counted and measured by using a dissecting microscope.

[2] = test system: Id-1; test: Quantitative Western analysis of Id-1 protein expression in MDA-MB231 cells; type: cell-based, human; settings: for Id-1 expression: 1 μM, both MDA-MB231 and 4T1 cells
Experimental: Quantitative Western analysis of Id-1 Expression in MDA-MB231 cells with CBD, Δ^9-THC, or WIN 55,212-2. The ability of CBD to regulate the expression of key genes that control breast cancer cell aggressiveness and invasiveness was determined.
SAR Analysis of Id-1 expression in MDA-MB231 cells with (Abn)-CBD receptor, Abn-CBD, O-1602, CP55,940, THC, CBN, or CBD. In order to determine the structure activity relationship (“SAR”) between cannabinoids and the inhibition of Id-1, MDA-MB231 cells were treated for two days with multiple cannabinoid compounds and Id-1 protein levels were assessed.
Quantitative Western analysis of Id-1 expression in MDA-MB231 cells and U251 cells with CBD or O-1663 CBD analog. […] MDA-MB231 breast cancer cells and U251 GBM cells were treated with 1.0 μM of cannabinoid for two days and then analyzed for Id-1 protein expression by quantitative Western analysis.

[3] = test system: MDA-MB231 cells; test: Boyden chamber invasion assay; type: cell-based, human; settings: for IC50: Homo sapiens
Experimental: Boyden chamber MDA-MB231 cell invasion studies with CBD, Δ^9-THC, or WIN 55,212-2. Invasion is an important step towards breast cancer cell metastasis. Therefore, the effects of several cannabinoids were tested on their ability to modulate the migratory and invasiveness activity of the most aggressive human breast cancer cell line, MDA-MB231, in a reconstituted basement membrane in a Boyden chamber.
Assays using Id-1 promoter reporter transfected MDA-MB231 cells with CBD. To determine if Id-1 represented a key mediator of CBD effects in highly aggressive breast cancer cells, Id-1 was constitutively expressed into MDA-MB231 cells (+)Id-1 as described in FIG. 2. The ectopic Id-1 gene, which is not under the control of the endogenous promoter, was introduced in the cells using the pLXSN retroviral vector. As a control, cells were infected with an empty pLXSN vector (−)Id-1.
Boyden chamber MDA-MB231 cell invasion studies with CBD and O-1663 CBD analog. Boyden chamber studies for invasion by MDA-MB231 or U251 cells were performed with either CBD or O-1663 CBD analog.
(§1) To directly test whether the O-1663 CBD analog could co-target two distinct cannabinoid antitumor pathways, the effects of CBD and the O-1663 CBD analog on cell viability with multiple antagonists were probed (FIG. 25). […] The ability of the O-1663 CBD analog and CBD to inhibit invasion was next compared (FIG. 25, panel C).

[4] = test system: MDA-MB231 cells; test: MTT cell proliferation/viability assay; settings: for reversal of inhibition of cell viability by CB2 receptor antagonist SR14458: 2 days; for IC50: Homo sapiens
From the text: The structure of O-1442 and O-1663 are almost identical with the exception of one R group. A smaller subset of the same analogs, including O-1442 and O-1663, were further screened for their ability to inhibit 4T1 breast cancer cell viability in anticipation of running in vivo experiments in immune competent mice (TABLE 5).
as §1

[5] = test system: U251 cells; test: MTT cell proliferation assay; settings: Homo sapiens
[6] = test system: 4T1 cells; test: 4T1 i.v. mouse model of breast cancer metastasis, treatment from one day after injection; type: in vivo; settings: for total amount of metastatic foci: 1 mg/kg i.p., 2 days after injection; for effect of CB2 receptor antagonist SR14458 on anti-metastatic activity: 14 days
Experimental: In-vivo model of breast cancer metastases: 4T1 cells were injected directly into the tail vein of syngeneic BALB/c mice. […] Two days after i.v. injection of 4T1 cells, the tumor bearing mice were injected i.p. once a day with vehicle or compound (1 mg/kg).
The 4T1 intravenous (i.v.) mouse model of breast cancer metastasis to assess the activity of CBD in vivo was utilized. […] One day after i.v. injection of the breast cancer cells, mice were treated daily for two weeks by intra-peritoneal injection with vehicle (used as a control) or CBD at a dose range of 0.1 to 5 mg/kg.
A survival study was carried out (FIG. 4, panel C).
To provide further support for this hypothesis in vivo, mice bearing 4T1 tumors were treated with CBD and the O-1663 CBD analog in the presence of a CB2 receptor antagonist (FIG. 27, panels D and E). […] In addition, a combination treatment with CBD and THC was included.
In-vivo studies of breast cancer metastases with CBD or O-1663 CBD analog. 4T1 cells were injected into the tail vein of syngeneic BALB/c mice and then were intraperitoneal injected 2 days later with either vehicle, CBD (1 mg/kg), or O-1663 CBD analog (1 mg/kg).

[7] = MDA-MB-231, read-out: IC50, MDA-MB231

C=C(C)[C@@H]1CCC(C)=C[C@H]1c1c(O)cc(CCCCC)cc1O [CBD, cannabidiol]
reduction in the number of metastases ([1]; MDA-MB231-luc-D3H2LN, 0.5 mg/kg and 1 mg/kg i.p. for three weeks): ≥ 70% | Id-1 expression [2]: partial reduction of Id-1 expression | inhibition of Id-1 (structure activity relationship) ([2]; 1.5 μM, two days): greatest inhibition of Id-1 | Id-1 protein expression ([2]; 0.1, 1.0, 1.5 μM, three days): concentration-dependent inhibition of Id-1 protein expression | concentration at which inhibitory effect on Id-1 expression occurred ([2]; three days): ≥ 100 nM | cell invasiveness, (+)Id-1 cells ([3]; 1.5 μM, two days, cells ectopically expressing Id-1): did not inhibit cell invasiveness | cell invasiveness, control (−)Id-1 cells ([3]; 1.5 μM, two days, empty pLXSN vector): significant reduction in cell invasiveness | invasion of MDA-MB231 cells ([3]; 0.1, 1.0 or 1.5 μM): significantly reduced the invasion | IC50 ([3]; MDA-MB-231, 72 h, treated 3 days, modified Boyden chambers, read-out: IC50, invasion of MDA-MB231 cells): 1000 nM | IC50 ([3]; MDA-MB-231, Boyden chamber, confidence limits 110-610, read-out: IC50 for invasion): 260 nM | reversal of inhibition of cell viability by CB1 receptor antagonist ([4]; 4T1 and MDA-MB231 cells): had no effect on reversing the activity of CBD | reversal of inhibition of cell viability by ROS scavenger α-TOC ([4]; 4T1 and MDA-MB231 cells): able to reverse the inhibitory effects of CBD | reversal of inhibition of cell viability by CB2 receptor antagonist SR14458 ([4]; 4T1 and MDA-MB231 cells): not significant | IC50 ([4]; MDA-MB-231, 72 h, read-out: IC50, antiproliferative, MDA-MB231): 1300 nM | IC50 [4, 7]: 2200 nM | IC50 ([4]; MDA-MB-231, read-out: IC50, MDA-MB231 cell viability): 1900 nM | IC50 ([5]; U-251, 72 h, read-out: CBD IC50, U251): 600 nM | IC50 ([5]; U-251, read-out: IC50, U251): 2900 nM | median increase in survival ([6]; 1 mg/kg daily from one day after injection): seven | total amount of metastatic foci [6]: reduction of the total amount of metastatic foci | effect of CB2 receptor antagonist SR14458 on anti-metastatic activity ([6]; 1 mg/kg): not affected by co-administration with SR14458 | inhibition of total breast cancer metastasis ([6]; i.p. daily two weeks, 0.1 to 5 mg/kg): up to 75% | EC50, total breast cancer metastasis ([6]; i.p. daily two weeks, CI=0.2-0.5): 0.3 mg/kg

CCCCC(C)(C)c1cc(O)c(C2CCC(C3CCCCC3)CC2)c(O)c1 (centres unmarked) [Compound O-1663]
potency compared with CBD, human MDA-MB231 model of metastasis ([1]; i.p. daily six weeks): more potent than CBD | Id-1 protein expression compared with CBD ([2]; 1.0 μM, two days, MDA-MB231 and U251 cells): downregulated Id-1 protein expression to a far greater extent than CBD | Id-1 expression [2]: almost a complete down-regulation of Id-1 expression | fold more potent than CBD at inhibiting invasion [3]: 1.7 fold | invasion by the cancerous cells compared with CBD ([3]; 1.0 μM, two days, MDA-MB231 or U251 cells): far superior to CBD in inhibiting invasion | IC50 ([3]; MDA-MB-231, 72 h, read-out: IC50, invasion of MDA-MB231 cells): 600 nM | reversal of inhibition of cell viability by CB2 receptor antagonist SR14458 ([4]; 4T1 and MDA-MB231 cells): partially reverse the inhibitory effects | IC50 [4, 7]: 1200 nM | fold more active than CBD, MDA-MB231 cell viability ([4]; second screen): 2.2 fold | IC50 ([5]; U-251, read-out: IC50, U251): 530 nM | animals with a metastatic foci >2 mm ([6]; 1 mg/kg): one of five animals | total amount of metastatic foci [6]: reduction of the total amount of metastatic foci | effect of CB2 receptor antagonist SR14458 on anti-metastatic activity ([6]; 1 mg/kg): partially reversed by the antagonist | fold more potent than CBD at inhibiting lung metastatic foci>2 mm ([6]; mouse, in vivo): 7.0 fold | fold more potent than CBD at inhibiting total metastasis ([6]; mouse, in vivo): 2.3 fold
